Reference: PubChem BioAssay (NCI)
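The compound was tested at five concentrations on cells cultured in 96-well plates, with a 48-hour exposure period. TGI denotes the concentration required for complete inhibition of growth.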

Key:
Assay in all cases: growth of human tumour cells (NCI), 48 h
HOP-92 NSCLC = test system: HOP-92 NSCLC
HS 578T breast = test system: HS 578T breast
IGROV1 ovarian = test system: IGROV1 ovarian
MOLT-4 leukemia = test system: MOLT-4 leukemia
NCI-H23 lung = test system: NCI-H23 lung
OVCAR-3 ovarian = test system: OVCAR-3 ovarian
PC-3 prostate = test system: PC-3 prostate
RPMI-8226 leukemia = test system: RPMI-8226 leukemia
UACC-62 melanoma = test system: UACC-62 melanoma
CAKI-1 renal = test system: CAKI-1 renal
SF-295 CNS = test system: SF-295 CNS

CC1CC[C@@]2(OC1)OC1C[C@H]3[C@@H]4C/C(=N\N(C)C)[C@@]5(O)CC(O)CC[C@]5(C)[C@H]4CC[C@]3(C)C1[C@@H]2C (stereo partly specified)
TGI (HOP-92 NSCLC): > 100 µM | TGI (HS 578T breast): > 100 µM | TGI (IGROV1 ovarian): > 100 µM | TGI (MOLT-4 leukemia): > 100 µM | TGI (NCI-H23 lung): > 100 µM | TGI (OVCAR-3 ovarian): > 100 µM | TGI (PC-3 prostate): > 100 µM | TGI (RPMI-8226 leukemia): > 100 µM | TGI (UACC-62 melanoma): > 100 µM

O=c1[nH]c(=O)n(C2CC(O)C(CO)O2)cc1OCCCc1ccccc1 (stereo unspecified)
TGI (CAKI-1 renal): > 100 µM | TGI (HS 578T breast): > 100 µM | TGI (IGROV1 ovarian): > 100 µM | TGI (MOLT-4 leukemia): > 100 µM | TGI (NCI-H23 lung): > 100 µM | TGI (OVCAR-3 ovarian): > 100 µM | TGI (PC-3 prostate): > 100 µM | TGI (RPMI-8226 leukemia): > 100 µM | TGI (SF-295 CNS): > 100 µM | TGI (UACC-62 melanoma): > 100 µM

COc1cccc(NC(=S)Nn2c(C)nc3ccccc3c2=O)c1
TGI (CAKI-1 renal): > 100 µM | TGI (HOP-92 NSCLC): > 100 µM | TGI (IGROV1 ovarian): > 100 µM | TGI (MOLT-4 leukemia): > 100 µM | TGI (NCI-H23 lung): > 100 µM | TGI (RPMI-8226 leukemia): > 100 µM | TGI (SF-295 CNS): > 100 µM | TGI (UACC-62 melanoma): > 100 µM

Cn1c(=O)cc(NCc2ccc(Cl)cc2)[nH]c1=O
TGI (CAKI-1 renal): > 100 µM | TGI (HOP-92 NSCLC): 45 µM | TGI (HS 578T breast): 61.3 µM | TGI (IGROV1 ovarian): > 100 µM | TGI (NCI-H23 lung): > 100 µM | TGI (OVCAR-3 ovarian): > 100 µM | TGI (PC-3 prostate): > 100 µM | TGI (RPMI-8226 leukemia): > 100 µM | TGI (SF-295 CNS): > 100 µM | TGI (UACC-62 melanoma): > 100 µM

COc1cc(-c2oc3c(OC)c(O)c(OC)c(O)c3c(=O)c2OC)cc(O)c1OC
TGI (CAKI-1 renal): > 100 µM | TGI (HOP-92 NSCLC): > 100 µM | TGI (IGROV1 ovarian): > 100 µM | TGI (MOLT-4 leukemia): > 100 µM | TGI (NCI-H23 lung): 76.8 µM | TGI (OVCAR-3 ovarian): 63.3 µM | TGI (PC-3 prostate): > 100 µM | TGI (RPMI-8226 leukemia): > 100 µM | TGI (SF-295 CNS): 53.6 µM | TGI (UACC-62 melanoma): 71.8 µM

O=C/C(=C(/Br)I)c1ccccc1
TGI (CAKI-1 renal): 4.15 µM | TGI (HOP-92 NSCLC): 4.64 µM | TGI (HS 578T breast): > 60 µM | TGI (IGROV1 ovarian): 12.3 µM | TGI (MOLT-4 leukemia): 4.28 µM | TGI (NCI-H23 lung): 12.7 µM | TGI (OVCAR-3 ovarian): 7.65 µM | TGI (PC-3 prostate): 18.2 µM | TGI (SF-295 CNS): 13.9 µM | TGI (UACC-62 melanoma): 44.4 µM

CCCc1cc(=O)oc2c3c(c4c(c12)OC(C)(C)C=C4)O[C@@H](C)[C@H](C)C3=O
TGI (CAKI-1 renal): 73.9 µM | TGI (HS 578T breast): 38.7 µM | TGI (IGROV1 ovarian): 28.4 µM | TGI (MOLT-4 leukemia): 26.8 µM | TGI (NCI-H23 lung): 38.4 µM | TGI (OVCAR-3 ovarian): 49.1 µM | TGI (PC-3 prostate): 35.4 µM | TGI (RPMI-8226 leukemia): 31.2 µM | TGI (SF-295 CNS): 31.7 µM

CCC1=CC2CN3CCc4c([nH]c5ccccc45)C(C(=O)OC)(C2)C13 (stereo unspecified)
TGI (CAKI-1 renal): 46.5 µM | TGI (HOP-92 NSCLC): 33.9 µM | TGI (IGROV1 ovarian): 105 µM | TGI (MOLT-4 leukemia): 181 µM | TGI (NCI-H23 lung): 100 µM | TGI (OVCAR-3 ovarian): 107 µM | TGI (RPMI-8226 leukemia): 137 µM | TGI (SF-295 CNS): 90.1 µM | TGI (UACC-62 melanoma): 64 µM

CCCCc1c2c(nc3c1CCCC3O)/C(=C/c1ccccc1)CCC2 (stereo unspecified)
TGI (HOP-92 NSCLC): > 100 µM | TGI (IGROV1 ovarian): > 100 µM | TGI (MOLT-4 leukemia): 38.7 µM | TGI (NCI-H23 lung): > 100 µM | TGI (OVCAR-3 ovarian): 35.9 µM | TGI (RPMI-8226 leukemia): 46.2 µM | TGI (SF-295 CNS): > 100 µM | TGI (UACC-62 melanoma): 95.7 µM

Cc1ccc(-c2c(C#N)c(S)n(NS(=O)(=O)c3ccc(C)cc3)c(=O)c2C#N)cc1
TGI (CAKI-1 renal): 74.3 µM | TGI (HOP-92 NSCLC): > 100 µM | TGI (IGROV1 ovarian): 51.1 µM | TGI (MOLT-4 leukemia): > 100 µM | TGI (NCI-H23 lung): 52.3 µM | TGI (OVCAR-3 ovarian): > 100 µM | TGI (PC-3 prostate): > 100 µM | TGI (RPMI-8226 leukemia): > 100 µM | TGI (SF-295 CNS): 51.3 µM | TGI (UACC-62 melanoma): > 100 µM

Cc1cn(C2CCC(/C=N\O)O2)c(=O)[nH]c1=O (stereo unspecified)
TGI (CAKI-1 renal): > 100 µM | TGI (HOP-92 NSCLC): > 100 µM | TGI (IGROV1 ovarian): > 100 µM | TGI (MOLT-4 leukemia): > 100 µM | TGI (NCI-H23 lung): > 100 µM | TGI (OVCAR-3 ovarian): > 100 µM | TGI (PC-3 prostate): > 100 µM | TGI (RPMI-8226 leukemia): > 100 µM | TGI (SF-295 CNS): > 100 µM | TGI (UACC-62 melanoma): > 100 µM

COc1ccc2nc3cccc([N+](=O)[O-])c3c(NCCO)c2c1
TGI (CAKI-1 renal): 0.0706 µM | TGI (HOP-92 NSCLC): 0.0499 µM | TGI (HS 578T breast): 0.0644 µM | TGI (IGROV1 ovarian): 0.479 µM | TGI (NCI-H23 lung): 0.0624 µM | TGI (OVCAR-3 ovarian): 0.0419 µM | TGI (PC-3 prostate): 0.0982 µM | TGI (RPMI-8226 leukemia): 0.019 µM | TGI (SF-295 CNS): 1.03 µM | TGI (UACC-62 melanoma): 0.0481 µM

O=[N+]([O-])c1cccc2nc3ccccc3c(NCCc3cccc[n+]3[O-])c12
TGI (CAKI-1 renal): 0.901 µM | TGI (HOP-92 NSCLC): < 0.0507 µM | TGI (HS 578T breast): 0.299 µM | TGI (NCI-H23 lung): 0.0661 µM | TGI (OVCAR-3 ovarian): 0.11 µM | TGI (PC-3 prostate): 1.51 µM | TGI (RPMI-8226 leukemia): 0.0679 µM | TGI (SF-295 CNS): 0.266 µM | TGI (UACC-62 melanoma): 0.211 µM

O=C(CC(=O)N1N=C(N2CCCCC2)CC1c1ccccc1)Nc1ccc(Cl)cc1 (stereo unspecified)
TGI (CAKI-1 renal): > 100 µM | TGI (HOP-92 NSCLC): > 100 µM | TGI (HS 578T breast): > 100 µM | TGI (IGROV1 ovarian): > 100 µM | TGI (MOLT-4 leukemia): > 100 µM | TGI (NCI-H23 lung): > 100 µM | TGI (OVCAR-3 ovarian): > 100 µM | TGI (PC-3 prostate): > 100 µM | TGI (SF-295 CNS): > 100 µM | TGI (UACC-62 melanoma): > 100 µM

N#Cc1c(-c2ccco2)cc(-c2ccc(NCc3nc4ccccc4[nH]3)cc2)nc1N
TGI (CAKI-1 renal): > 100 µM | TGI (HOP-92 NSCLC): 67.4 µM | TGI (IGROV1 ovarian): > 100 µM | TGI (MOLT-4 leukemia): 39.7 µM | TGI (NCI-H23 lung): 48.8 µM | TGI (OVCAR-3 ovarian): 41.8 µM | TGI (RPMI-8226 leukemia): 62 µM | TGI (SF-295 CNS): 52.3 µM | TGI (UACC-62 melanoma): 45.1 µM

CCOC(=O)c1c(C)c2c(n1C)CCc1cn[nH]c1-2
TGI (CAKI-1 renal): > 100 µM | TGI (HOP-92 NSCLC): > 100 µM | TGI (IGROV1 ovarian): > 100 µM | TGI (MOLT-4 leukemia): > 100 µM | TGI (NCI-H23 lung): > 100 µM | TGI (OVCAR-3 ovarian): > 100 µM | TGI (RPMI-8226 leukemia): > 100 µM | TGI (SF-295 CNS): > 100 µM | TGI (UACC-62 melanoma): > 100 µM

CCNC1(c2cccc(C)c2)OC(C)(C)c2cccc3cccc1c23 (stereo unspecified)
TGI (CAKI-1 renal): 48.1 µM | TGI (HOP-92 NSCLC): 22.4 µM | TGI (HS 578T breast): 44.3 µM | TGI (IGROV1 ovarian): 37.5 µM | TGI (NCI-H23 lung): 34 µM | TGI (OVCAR-3 ovarian): 33.2 µM | TGI (RPMI-8226 leukemia): 15.8 µM | TGI (SF-295 CNS): 35.2 µM | TGI (UACC-62 melanoma): 31 µM

COc1nc(SC)nc2c1cnn2C1OC(C(O)CO)C(OC)C1O (stereo unspecified)
TGI (IGROV1 ovarian): > 100 µM | TGI (MOLT-4 leukemia): 69 µM | TGI (NCI-H23 lung): > 100 µM | TGI (OVCAR-3 ovarian): > 100 µM | TGI (RPMI-8226 leukemia): > 100 µM | TGI (SF-295 CNS): > 100 µM | TGI (UACC-62 melanoma): > 100 µM

OC12COc3ccccc3C1Oc1ccccc1C2 (stereo unspecified)
TGI (CAKI-1 renal): > 100 µM | TGI (HOP-92 NSCLC): > 100 µM | TGI (IGROV1 ovarian): > 100 µM | TGI (MOLT-4 leukemia): > 100 µM | TGI (NCI-H23 lung): > 100 µM | TGI (OVCAR-3 ovarian): > 100 µM | TGI (PC-3 prostate): > 100 µM | TGI (RPMI-8226 leukemia): > 100 µM | TGI (SF-295 CNS): > 100 µM | TGI (UACC-62 melanoma): > 100 µM

COC(OC)c1cccc2c1C(=O)CCC1(O)c3ccccc3C1C2 (stereo unspecified)
TGI (IGROV1 ovarian): > 100 µM | TGI (MOLT-4 leukemia): > 100 µM | TGI (NCI-H23 lung): > 100 µM | TGI (OVCAR-3 ovarian): > 100 µM | TGI (RPMI-8226 leukemia): 69.8 µM | TGI (SF-295 CNS): > 100 µM | TGI (UACC-62 melanoma): > 100 µM

O=c1cc(N2CCOCC2)[nH]c(=O)n1-c1cccc(C(F)(F)F)c1
TGI (CAKI-1 renal): > 100 µM | TGI (HOP-92 NSCLC): > 100 µM | TGI (HS 578T breast): > 100 µM | TGI (IGROV1 ovarian): > 100 µM | TGI (MOLT-4 leukemia): > 100 µM | TGI (NCI-H23 lung): > 100 µM | TGI (OVCAR-3 ovarian): > 100 µM | TGI (SF-295 CNS): > 100 µM | TGI (UACC-62 melanoma): > 100 µM

CCCCC(C)C1CCC2(C)C=CC(=O)C(C)=C2C1O (stereo unspecified)
TGI (CAKI-1 renal): > 100 µM | TGI (HOP-92 NSCLC): > 100 µM | TGI (IGROV1 ovarian): > 100 µM | TGI (MOLT-4 leukemia): > 100 µM | TGI (NCI-H23 lung): > 100 µM | TGI (OVCAR-3 ovarian): > 100 µM | TGI (RPMI-8226 leukemia): > 100 µM | TGI (SF-295 CNS): > 100 µM | TGI (UACC-62 melanoma): > 100 µM
